CC(C)(C)c1ccc2c(c1)C(=O)c1ccccc1C2=O
solubility (mole fraction)
Conditions | 303.15 K | 308.15 K | 313.15 K | 318.15 K | 323.15 K | 333.15 K
in 2,6-dimethyl-4-heptanol | 0.0245 | 0.0351 | 0.0461 | 0.0635 | 0.0998 | 0.21
in mesitylene | 0.282 | 0.317 | 0.345 | 0.386 | 0.443 | 0.604
in trioctyl phosphate | 0.169 | 0.185 | 0.209 | 0.254 | 0.296 | 0.39
